Results taken from patent US9458110B2, “Phenylpyrazole derivatives as potent ROCK1 and ROCK2 inhibitors” (BRISTOL-MYERS SQUIBB COMPANY, priority 2013, dated 2016).

How the values were obtained:
ROCK2 = ROCK2 (Homo sapiens (Human), UniProt O75116); test: ROCK assay (Caliper LABCHIP peptide phosphorylation), ROCK2; type: biochemical; details: 5 μM ATP, 1.5 μM peptide substrate;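 further: reaction stopped with EDTA, then phosphorylated and unphosphorylated peptide resolved by microfluidic electrophoresis, kinase inhibition computed at each compound concentration in dose-response series, DMSO under 2%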
ROCK2, sequence (O75116 whole entry, species assumed): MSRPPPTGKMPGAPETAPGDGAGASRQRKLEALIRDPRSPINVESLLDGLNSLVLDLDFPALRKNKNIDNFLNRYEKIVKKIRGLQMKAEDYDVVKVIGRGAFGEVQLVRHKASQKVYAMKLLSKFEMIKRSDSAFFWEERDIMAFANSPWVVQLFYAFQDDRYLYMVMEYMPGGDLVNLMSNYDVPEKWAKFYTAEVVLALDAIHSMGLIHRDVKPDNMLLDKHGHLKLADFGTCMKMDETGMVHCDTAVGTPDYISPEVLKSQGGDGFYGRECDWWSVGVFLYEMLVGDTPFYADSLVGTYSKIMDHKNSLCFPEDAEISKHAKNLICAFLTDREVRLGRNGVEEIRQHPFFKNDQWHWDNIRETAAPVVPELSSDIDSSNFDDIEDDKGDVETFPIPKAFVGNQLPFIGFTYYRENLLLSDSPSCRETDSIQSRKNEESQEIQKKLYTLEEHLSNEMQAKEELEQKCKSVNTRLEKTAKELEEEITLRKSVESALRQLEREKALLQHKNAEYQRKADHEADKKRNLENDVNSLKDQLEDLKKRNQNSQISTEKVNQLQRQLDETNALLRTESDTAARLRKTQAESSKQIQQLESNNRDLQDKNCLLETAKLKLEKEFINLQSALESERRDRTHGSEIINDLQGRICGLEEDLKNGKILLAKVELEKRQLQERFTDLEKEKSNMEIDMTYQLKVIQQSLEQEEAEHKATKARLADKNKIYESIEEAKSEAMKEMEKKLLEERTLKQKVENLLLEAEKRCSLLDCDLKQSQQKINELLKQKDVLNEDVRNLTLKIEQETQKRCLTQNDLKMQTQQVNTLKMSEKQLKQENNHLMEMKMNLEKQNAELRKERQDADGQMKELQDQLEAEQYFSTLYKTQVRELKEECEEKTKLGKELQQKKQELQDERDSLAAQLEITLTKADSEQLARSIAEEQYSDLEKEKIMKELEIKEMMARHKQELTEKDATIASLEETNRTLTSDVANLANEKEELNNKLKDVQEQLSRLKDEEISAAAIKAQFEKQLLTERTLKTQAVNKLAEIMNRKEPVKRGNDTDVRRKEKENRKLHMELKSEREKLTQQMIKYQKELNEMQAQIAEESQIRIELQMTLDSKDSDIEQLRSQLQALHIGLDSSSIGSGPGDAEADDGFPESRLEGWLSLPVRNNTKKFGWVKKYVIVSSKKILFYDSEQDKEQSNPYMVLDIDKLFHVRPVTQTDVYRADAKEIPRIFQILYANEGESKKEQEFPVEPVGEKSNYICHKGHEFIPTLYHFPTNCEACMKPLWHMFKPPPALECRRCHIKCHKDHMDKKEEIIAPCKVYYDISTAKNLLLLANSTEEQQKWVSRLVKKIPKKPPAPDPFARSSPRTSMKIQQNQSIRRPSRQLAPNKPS

ROCK1 = ROCK1 (Homo sapiens (Human), UniProt Q13464); test: ROCK assay (Caliper LABCHIP peptide phosphorylation), ROCK1; type: biochemical; details: 5 μM ATP, 1.5 μM peptide substrate;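 further: Read-out is separation of phosphorylated from unphosphorylated peptide, with kinase activity inhibition computed at every concentration of a dose-response series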
ROCK1, sequence (Q13464 whole entry, species assumed): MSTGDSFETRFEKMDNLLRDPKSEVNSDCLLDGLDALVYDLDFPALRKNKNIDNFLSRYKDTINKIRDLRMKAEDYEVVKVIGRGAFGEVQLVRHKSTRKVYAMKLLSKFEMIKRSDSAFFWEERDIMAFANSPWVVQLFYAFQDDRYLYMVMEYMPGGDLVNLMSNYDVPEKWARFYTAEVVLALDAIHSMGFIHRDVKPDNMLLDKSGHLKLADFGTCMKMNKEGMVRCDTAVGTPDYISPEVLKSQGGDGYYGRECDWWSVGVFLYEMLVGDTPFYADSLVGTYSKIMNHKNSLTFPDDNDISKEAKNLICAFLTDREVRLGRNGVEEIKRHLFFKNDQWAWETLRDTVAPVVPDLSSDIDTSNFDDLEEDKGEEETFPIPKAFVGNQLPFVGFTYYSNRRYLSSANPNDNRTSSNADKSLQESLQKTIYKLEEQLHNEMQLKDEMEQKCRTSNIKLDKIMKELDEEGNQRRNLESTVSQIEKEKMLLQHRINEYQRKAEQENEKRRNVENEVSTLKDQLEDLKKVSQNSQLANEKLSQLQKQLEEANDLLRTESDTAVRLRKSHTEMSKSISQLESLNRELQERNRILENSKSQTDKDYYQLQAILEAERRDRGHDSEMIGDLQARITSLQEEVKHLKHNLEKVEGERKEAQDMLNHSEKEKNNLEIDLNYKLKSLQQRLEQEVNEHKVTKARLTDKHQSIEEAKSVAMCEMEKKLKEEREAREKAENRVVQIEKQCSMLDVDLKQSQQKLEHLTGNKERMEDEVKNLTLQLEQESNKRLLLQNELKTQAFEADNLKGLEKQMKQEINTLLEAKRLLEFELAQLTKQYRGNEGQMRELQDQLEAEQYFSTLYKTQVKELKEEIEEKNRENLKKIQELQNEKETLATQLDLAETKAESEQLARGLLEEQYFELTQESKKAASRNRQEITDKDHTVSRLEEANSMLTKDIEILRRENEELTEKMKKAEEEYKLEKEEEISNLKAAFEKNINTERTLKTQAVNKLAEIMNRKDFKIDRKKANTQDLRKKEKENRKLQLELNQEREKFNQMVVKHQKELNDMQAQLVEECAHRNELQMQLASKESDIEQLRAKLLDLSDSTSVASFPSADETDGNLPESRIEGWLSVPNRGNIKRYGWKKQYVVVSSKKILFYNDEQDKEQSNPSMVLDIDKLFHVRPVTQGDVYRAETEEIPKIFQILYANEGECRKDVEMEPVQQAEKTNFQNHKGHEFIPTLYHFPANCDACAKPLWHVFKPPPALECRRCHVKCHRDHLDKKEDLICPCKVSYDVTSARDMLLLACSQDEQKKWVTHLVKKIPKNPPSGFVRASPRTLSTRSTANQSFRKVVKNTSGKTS

Row | Structure (SMILES) | IC50 (ROCK2) [µM] | IC50 (ROCK1) [µM]
1 | COc1cc(C(=O)NCc2nc3ccccc3s2)ccc1-c1cn[nH]c1 [Example 16, N-(benzo[d]thiazol-2-ylmethyl)-3-methoxy-4-(1H-pyrazol-4-yl)benzamide] | 0.438 | 0.556
2 | COc1cc(-c2c[nH]nc2C(F)(F)F)ccc1C(=O)NCc1c(F)cccc1Cl [Example 189, N-[(2-chloro-6-fluorophenyl)methyl]-2-methoxy-4-[3-(trifluoromethyl)-1H-pyrazol-4-yl]benzamide] | 0.0425 | 0.0394
3 | COc1cc(C(=O)NCc2cccc(C(=O)N3CCCC3)c2)ccc1-c1cn[nH]c1 [Example 66, 3-methoxy-4-(1H-pyrazol-4-yl)-N-(3-(pyrrolidine-1-carbonyl)benzyl) benzamide] | 0.0235 | 0.0643
4 | COc1cccc([C@@H](C)NC(=O)c2ccc(-c3cn[nH]c3)cc2OCCN(C)C)c1 [Example 308, 2-[2-(Dimethylamino)ethoxy]-N-[(1R)-1-(3-methoxyphenyl)ethyl]-4-(1H-pyrazol-4-yl)benzamide] | 0.0375 | 0.284
5 | COc1cc(-c2cn[nH]c2)cc(F)c1C(=O)N[C@H](C)c1ccccc1 [Example 312, 2-fluoro-6-methoxy-N-[(1R)-1-phenylethyl]-4-(1H-pyrazol-4-yl)benzamide] | 1.49 | > 2
6 | COc1cc(-c2c[nH]nc2C)ccc1C(=O)NCc1c(F)cccc1Cl [Example 184, N-[(2-chloro-6-fluorophenyl)methyl]-2-methoxy-4-(3-methyl-1H-pyrazol-4-yl)benzamide] | 0.101 | 0.0142
7 | CCC(O)c1cc(C(=O)N[C@H](C)c2ccccc2)ccc1-c1cn[nH]c1 (stereo partly drawn) [Example 286, 3-(1-hydroxypropyl)-N-[(1R)-1-phenylethyl]-4-(1H-pyrazol-4-yl)benzamide] | 0.19 | 0.0976
8 | COc1cccc([C@@H](C)NC(=O)c2ccc(-c3c[nH]nc3C(C)O)cc2OC)c1 (stereo partly drawn) [Example 307, 4-(3-(1-Hydroxyethyl)-1H-pyrazol-4-yl)-2-methoxy-N-((R)-1-(3-methoxyphenyl)ethyl)benzamide] | 0.205 | 0.544
9 | COc1cc(C(=O)N(C)Cc2ccccc2)ccc1-c1cn[nH]c1 [Example 71, N-benzyl-3-methoxy-N-methyl-4-(1H-pyrazol-4-yl)benzamide] | 0.494 | 1.34
10 | CC(O)c1cc(C(=O)NC(C)c2ccccc2F)ccc1-c1cn[nH]c1 (stereo not drawn) [Example 278, N-[1-(2-fluorophenyl)ethyl]-3-(1-hydroxyethyl)-4-(1H-pyrazol-4-yl)benzamide] | 1.32 | 1.78
11 | COc1cc(C(=O)NC(C)c2ccc3c(c2)OCCO3)ccc1-c1cn[nH]c1 (stereo not drawn) [Example 101, N-[1-(2,3-dihydro-1,4-benzodioxin-6-yl)ethyl]-3-methoxy-4-(1H-pyrazol-4-yl)benzamide] | 0.189 | 0.742
12 | COc1cccc([C@@H](C)NC(=O)c2ccc(-c3cn[nH]c3)cc2Cl)c1 [Example 109, 2-chloro-N-[(1R)-1-(3-methoxyphenyl)ethyl]-4-(1H-pyrazol-4-yl)benzamide] | 0.144 | 0.529
13 | CCS(=O)(=O)NC[C@@H](NC(=O)c1ccc(-c2cn[nH]c2)c(OC)c1)c1ccccc1 [Example 262, N-[(1S)-2-ethane-sulfonamido-1-phenylethyl]-3-methoxy-4-(1H-pyrazol-4-yl)benzamide] | 0.036 | 0.0552
14 | COc1cc(C(=O)NCc2ccc3nc(N)sc3c2)ccc1-c1cn[nH]c1 [Example 77, N-((2-aminobenzo[d]thiazol-6-yl)methyl)-3-methoxy-4-(1H-pyrazol-4-yl)benzamide] | 0.401 | 1.24
15 | COc1cc(C(=O)NCc2cccc(-c3ccccc3)c2)ccc1-c1cn[nH]c1 [Example 18, N-([1,1′-biphenyl]-3-ylmethyl)-3-methoxy-4-(1H-pyrazol-4-yl)benzamide] | 0.129 | 0.334
16 | COc1cc(C(=O)N[C@@H](CO)Cc2ccccc2)ccc1-c1cn[nH]c1 [Example 133, N-[(2R)-1-hydroxy-3-phenylpropan-2-yl]-3-methoxy-4-(1H-pyrazol-4-yl)benzamide] | 0.034 | 0.0779
17 | COc1cccc([C@@H](C)NC(=O)c2ccc(-c3c(C)n[nH]c3C)cc2OC)c1 [Example 304, 4-(3,5-Dimethyl-1H-pyrazol-4-yl)-2-methoxy-N-[(1R)-1-(3-methoxyphenyl)ethyl]benzamide] | 0.0245 | 0.133
18 | COC(=O)C[C@@H](NC(=O)c1ccc(-c2cn[nH]c2)c(C)c1)c1ccccc1 [Example 155, methyl (3R)-3-{[3-methyl-4-(1H-pyrazol-4-yl)phenyl] formamido}-3-phenyl-propanoate] | 0.0702 | 0.405
19 | CC(NC(=O)c1ccc(-c2cn[nH]c2)c(C=O)c1)c1ccccc1F (stereo not drawn) [Example 275, N-[1-(2-fluorophenyl)ethyl]-3-formyl-4-(1H-pyrazol-4-yl)benzamide] | 1.42 | 0.983

Now those with a lower IC50 (ROCK2), led by results:

Row | IC50 (ROCK2) [µM] | IC50 (ROCK1) [µM] | Structure (SMILES)
20 | 0.0214 | 0.0537 | COC(=O)CC(NC(=O)c1ccc(-c2cn[nH]c2)c(OC)c1)c1ccccc1 (stereo in doubt) [Example 92, methyl (3R)-3-{[3-methoxy-4-(1H-pyrazol-4-yl)phenyl] formamido}-3-phenyl-propanoate]
21 | 0.0209 | 0.0204 | COc1cc(C(=O)NCc2ccccc2C(F)(F)F)ccc1-c1cn[nH]c1 [Example 26, 3-methoxy-4-(1H-pyrazol-4-yl)-N-(2-(trifluoromethyl)benzyl)benzamide]
22 | 0.0167 | 0.0565 | COc1cc(C(=O)NC(CO)c2ccccc2F)ccc1-c1cn[nH]c1 (stereo not drawn) [Example 167, N-[1-(2-fluorophenyl)-2-hydroxyethyl]-3-methoxy-4-(1H-pyrazol-4-yl)benzamide]
23 | 0.0153 | 0.0364 | CCc1ccccc1CNC(=O)c1ccc(-c2cn[nH]c2)c(OC)c1 [Example 180, N-[(2-ethylphenyl)methyl]-3-methoxy-4-(1H-pyrazol-4-yl)benzamide]
24 | 0.014 | 0.023 | COc1cc(C(=O)NC(Cc2ccccc2)C(C)=O)ccc1-c1cn[nH]c1 (stereo not drawn) [Example 187, 3-methoxy-N-(3-oxo-1-phenylbutan-2-yl)-4-(1H-pyrazol-4-yl)benzamide]
25 | 0.0115 | 0.0433 | COc1cc(C(=O)NCc2cccc(C(F)(F)F)c2)ccc1-c1cn[nH]c1 [Example 32, 3-methoxy-4-(1H-pyrazol-4-yl)-N-(3-(trifluoro-methyl)benzyl) benzamide]
26 | 0.0111 | 0.0219 | COc1cc(C(=O)NCc2c(F)cc(F)cc2F)ccc1-c1cn[nH]c1 [Example 89, 3-methoxy-4-(1H-pyrazol-4-yl)-N-[(2,4,6-trifluorophenyl)methyl] benzamide]
27 | 0.0105 | 0.0281 | COc1cc(C(=O)NCCc2ccccc2)ccc1-c1cn[nH]c1 [Example 36, 3-methoxy-N-phenethyl-4-(1H-pyrazol-4-yl)benzamide]
28 | 0.00983 | 0.0197 | Cc1cc(C(=O)NCc2c(F)cccc2Cl)ccc1-c1cn[nH]c1 [Example 151, N-[(2-chloro-6-fluorophenyl)methyl]-3 methyl-4-(1H-pyrazol-4-yl)benzamide]
29 | 0.00824 | 0.0326 | COc1cc(C(=O)NCc2cccc(C#N)c2)ccc1-c1cn[nH]c1 [Example 138, N-[(3-cyanophenyl)methyl]-3-methoxy-4-(1H-pyrazol-4-yl)benzamide]
30 | 0.00773 | 0.05 | CC(O)c1cc(C(=O)N[C@H](C)c2ccccc2)ccc1-c1cn[nH]c1 (stereo partly drawn) [Example 273, 3-(1-hydroxyethyl)-N-[(1R)-1-phenylethyl]-4-(1H-pyrazol-4-yl)benzamide]
31 | 0.00535 | 0.0148 | COc1cc(C(=O)NCc2c(F)ccc(OC)c2F)ccc1-c1cn[nH]c1 [Example 51, N-(2,6-difluoro-3-methoxybenzyl)-3-methoxy-4-(1H-pyrazol-4-yl)benzamide]
32 | 0.00481 | 0.0213 | COc1cccc(CNC(=O)c2ccc(-c3cn[nH]c3)cc2OC)c1 [Example 54, 2-methoxy-N-(3-methoxybenzyl)-4-(1H-pyrazol-4-yl)benzamide]
33 | 0.00278 | 0.00655 | COc1cc(-c2cn[nH]c2)ccc1C(=O)N[C@H](CCO)c1ccccc1 [Example 209, N-[(1R)-3-hydroxy-1-phenylpropyl]-2-methoxy-4-(1H-pyrazol-4-yl)benzamide]
34 | 0.00253 | 0.00577 | COc1cc(C(=O)NCc2cccc(Cl)c2Cl)ccc1-c1cn[nH]c1 [Example 29, N-(2,3-dichlorobenzyl)-3-methoxy-4-(1H-pyrazol-4-yl)benzamide]
35 | 0.00217 | 0.0078 | COc1cc(C(=O)NC(CCO)c2ccccc2)ccc1-c1cn[nH]c1 (stereo not drawn) [Example 146, N-(3-hydroxy-1-phenylpropyl)-3-methoxy-4-(1H-pyrazol-4-yl)benzamide]
36 | 0.00193 | 0.0047 | COc1cc(C(=O)NC(CCN(C)C)c2ccccc2)ccc1-c1cn[nH]c1 (stereo not drawn) [Example 169, N-[3-(dimethylamino)-1-phenylpropyl]-3-methoxy-4-(1H-pyrazol-4-yl)benzamide]
37 | 0.00086 | 0.00422 | Cc1cc(C(=O)NCc2cccc(C(=O)NC3CC3)c2)ccc1-c1cn[nH]c1 [Example 244, N-{[3-(cyclopropyl-carbamoyl)phenyl]methyl}-3-methyl-4-(1H-pyrazol-4-yl)benzamide]
38 | 0.00085 | 0.00154 | CCN1CCC[C@H]1CNC(=O)c1cccc(CNC(=O)c2ccc(-c3cn[nH]c3)c(OC)c2)c1 [Example 241, N-{[3-({[(2S)-1-ethylpyrrolidin-2-yl]methyl}carbamoyl)phenyl]methyl}-3-methoxy-4-(1H-pyrazol-4-yl)benzamide]
39 | 0.00071 | 0.00246 | Cc1cc(C(=O)NCc2cccc(C(=O)NC[C@H]3CCCN3)c2)ccc1-c1cn[nH]c1 [Example 245, 3-methyl-4-(1H-pyrazol-4-yl)-N-[(3-{[(2R)-pyrrolidin-2-ylmethyl]carbamoyl}phenyl)methyl] benzamide]
